{"source": "patent US20190070128A1", "about": "“USE OF CANNABIDIVARIN IN THE TREATMENT OF AUTISM SPECTRUM DISORDER, ASSOCIATED DISORDERS AND SCHIZOPHRENIA” (GW Research Limited, priority 2016, published 2019)", "key": {"[1]": {"test_system": "Ube3am-/p+ (AS) mice", "assay": "rotarod test in Angelman syndrome mice", "type": "in vivo, mouse", "conditions": "chronic treatment (30 days), 20 mg/kg i.p., vs AS vehicle", "method": "Heterozygous mice with maternal deficiency of Ube3A (Ube3am−/p+) and wild type (Ube3am+/p+) were purchased from The Jackson Laboratory (Jackson code: B6.12957-Ube3a tm1Alb/J) and maintained in a C57BL/6 background.\nDrugs were dissolved in 1:1:18 ethanol:cremophor:0.9% saline, for intraperitoneal (i.p.) administration. Drug treatment was performed daily for 35 days. CBDV was administered at 20 mg/kg.\nRotarod: The rotarod test assesses balance and motor coordination of mice. Mice have been measured for the time (in seconds) of equilibrium before falling on a rotary cylinder by a magnet that, activated from the fall of the mouse on the plate, allows to record the time of permanence on the cylinder. […] The animals were analysed by 2 separate tests at 1-h interval in the same day."}, "[2]": {"test_system": "MeCP2 KO mice", "assay": "symptom scoring in MeCP2 KO mice", "type": "in vivo, mouse", "method": "(§1) Starting from PND 28, mice received a daily intraperitoneal injection of CBDV (or vehicle) at the dose of 2, 20 and 200 mg/kg. Animals were then scored every other day to evaluate the effect of CBDV treatment on motor symptoms (hindlimb clasping, gait, mobility) as well as neurological signs and general conditions (breathing abnormalities, tremors and general condition) present in MeCP2 knockout (KO) mice.\nEach of the six symptoms was scored from 0 to 2 (0 corresponds to the symptom being absent or the same as in the wild type (WT) animal; 1 when the symptom was present; 2 when the symptom was severe).\nMobility: the mouse is observed when placed on bench, then when handled gently. 0 =as WT. 1=reduced movement when compared with WT: extended freezing period when first placed on bench and longer periods spent immobile. 2=no spontaneous movement when placed on the bench; mouse can move in response to a gentle prod or a food pellet placed nearby.\nGait: 0=as WT. 1=hind legs are spread wider than WT when walking or running with reduced pelvic elevation, resulting in a ‘waddling’ gait. 2=more severe abnormalities: tremor when feet are lifted, walks backward or ‘bunny hops’ by lifting both rear feet at once.\nHindlimb clasping: mouse observed when suspend by holding base of the tail. 0=legs splayed outward. 1=hindlimbs are drawn toward each other (without touching) or one leg is drawn into the body. 2=both legs are pulled in tightly, either touching each other or touching the body.\nTremor: mouse observed while standing on the flat palm of the hand. 0=no tremor. 1=intermittent mild tremor. 2=continuous tremor or intermittent violent tremor.\nBreathing: movement of flanks observed while animal is standing still. 0=normal breathing. 1=periods of regular breathing interspersed with short periods of more rapid breathing or with pauses in breathing. 2=very irregular breathing-gasping or panting.\nGeneral condition: mouse observed for indicators of general well-being such as coat condition, eyes and body stance. 0=clean shiny coat, clear eyes, and normal stance. 1=eyes dull, coat dull/un-groomed, and somewhat hunched stance. 2=eyes crusted or narrowed, piloerection, and hunched posture."}, "[3]": {"test_system": "MeCP2 KO mice", "assay": "body weight gain in MeCP2 KO and WT mice", "type": "in vivo, mouse", "method": "CBDV was administered daily at the dose of 2, 20 and 200 mg/kg i.p. starting from PND 28 and the following signs were scored every other day: hindlimb clasping (indication of motor imbalance), tremor, gait (measure of coordination), breathing, mobility and general condition.\nThe CBDV was dissolved in ethanol, cremophor and saline (1:1:18).\nas §1"}, "[4]": {"molecular_target": "T1, hCB1 (Homo sapiens, UniProt P21554)", "T1 sequence (P21554 whole entry)": "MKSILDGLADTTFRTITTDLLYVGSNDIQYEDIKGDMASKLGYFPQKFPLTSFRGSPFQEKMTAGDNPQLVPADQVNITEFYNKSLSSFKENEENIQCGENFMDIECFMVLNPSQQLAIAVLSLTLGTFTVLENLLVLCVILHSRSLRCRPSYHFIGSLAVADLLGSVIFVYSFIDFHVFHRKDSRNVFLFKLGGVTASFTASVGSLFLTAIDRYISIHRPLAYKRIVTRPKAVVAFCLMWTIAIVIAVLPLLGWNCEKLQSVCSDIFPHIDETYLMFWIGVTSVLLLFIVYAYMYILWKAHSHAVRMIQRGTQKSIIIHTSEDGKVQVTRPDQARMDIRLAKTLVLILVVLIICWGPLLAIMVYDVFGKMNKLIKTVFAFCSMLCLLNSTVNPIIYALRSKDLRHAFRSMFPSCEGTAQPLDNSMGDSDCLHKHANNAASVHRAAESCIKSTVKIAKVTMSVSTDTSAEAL", "design": "expressed in transfected cells; host or cells: CHO cells expressing hCB1 (membranes)", "conditions": "hCB1-CHO cell membranes; extract compared with purified CBDV; cited from earlier work"}, "[5]": {"test_system": "VPA-exposed rats", "assay": "locomotor activity and repetitive behaviours, prenatal VPA model", "type": "in vivo, rat", "method": "Pregnant Sprague-Dawley rats (Charles River, Calco, Italy), received a single intraperitoneal injection of 500 mg/kg sodium valproate on the 12.5 day after conception, and control females were injected with physiological saline at the same time. Sodium valproate (Sigma Aldrich, Milan, IT) was dissolved in saline at a concentration of 250 mg/ml.\nCBDV was dissolved in ethanol, cremophor and saline (1:1:18). Symptomatic treatment with CBDV at doses of 0.2, 2, 20, and 100 mg/kg/day i.p. was performed starting from PND 34 (early adolescence) till 56 (early adulthood), both in male and female offspring of dams injected with VPA 500 mg/kg (or vehicle) on day 12.5 after conception. At PND 56, a series of behavioural tests was performed in order to assess the effect of chronic CBDV on sociability, social novelty, short-term memory, locomotion and stereotyped/repetitive behaviours.\nLocomotor activity and repetitive behaviours: Locomotor activity was recorded in an activity cage for 20 minutes with the aid of Anymaze program (Ugo Basile, Italy). In this period, repetitive behaviours (self-grooming and digging) were measured by an observer blind to the treatment group."}, "[6]": {"molecular_target": "T1, hCB1", "conditions": "cited from earlier work"}}, "data": [{"smiles": "C=C(C)[C@@H]1CCC(C)=C[C@H]1c1c(O)cc(CCC)cc1O", "note": "[CBDV, Cannabidivarin]", "values": [{"measurement": "latency to fall", "setting": "[1]", "result": "reduced"}, {"measurement": "mobility", "setting": "[2]", "result": "reached statistical significance only at PND 64"}, {"measurement": "breathing", "setting": "[2]; 2 mg/kg, PND 56 to 60", "result": "significantly improve"}, {"measurement": "tremors", "setting": "[2]; 2 mg/kg, PND 63", "result": "still protective"}, {"measurement": "total symptom score", "setting": "[2]; 2 mg/kg, every time point (PND 45, 47, 49, 55, 56, 57, 58, 60 and 64)", "result": "significantly improved"}, {"measurement": "general conditions (coat and eyes conditions)", "setting": "[2]; 20 mg/kg, PND 52", "result": "significantly effective only at the earlier time point"}, {"measurement": "hindlimb clasping", "setting": "[2]; 200 mg/kg", "result": "did not significantly affect"}, {"measurement": "gait", "setting": "[2]; 200 mg/kg, PND 53 to 57", "result": "significantly improved"}, {"measurement": "tremors", "setting": "[2]; 200 mg/kg, PND 55 and 63", "result": "still able to reduce tremors"}, {"measurement": "breathing", "setting": "[2]; 200 mg/kg, PND 57 and 60", "result": "effective"}, {"measurement": "total symptom score", "setting": "[2]; 200 mg/kg, from PND 47 until PND 58", "result": "beneficial effect"}, {"measurement": "general conditions (coat and eyes conditions)", "setting": "[2]; 2 and 200 mg/kg, PND 52-64", "result": "significantly improved"}, {"measurement": "tremors", "setting": "[2]; all three doses, PND 45-49", "result": "significantly delaying and reducing"}, {"measurement": "total symptom score: appearance of the phenotype", "setting": "[2]; all three doses, vs KO-vehicle", "result": "delay and attenuate"}, {"measurement": "hindlimb clasping", "setting": "[2]; lower doses, PND 47 and 49", "result": "significantly attenuate"}, {"measurement": "body weight (area under the curve)", "setting": "[3]; MeCP2 KO mice", "result": "significantly rescued"}, {"measurement": "reduction in body weight", "setting": "[3]; MeCP2 KO mice, 2, 20 and 200 mg/kg i.p. daily, PND 28-66", "result": "partially prevent"}, {"measurement": "body weight (area under the curve)", "setting": "[3]; WT controls", "result": "without affecting"}, {"measurement": "affinity for CB1 cannabinoid receptors", "setting": "[4]", "result": "neither bound with high enough affinity"}, {"measurement": "time spent in compulsive self-grooming", "setting": "[5]; females, 2 and 100 mg/kg", "result": "significantly normalize"}, {"measurement": "time spent in compulsive self-grooming", "setting": "[5]; males, 20 mg/kg", "result": "significantly normalize"}, {"measurement": "locomotion increased by VPA", "setting": "[5]; males, 2, 20 and 100 mg/kg", "result": "normalize"}, {"measurement": "affinity for the CB1 receptor", "setting": "[6]", "result": "low affinity"}]}]}
